Measured values taken from patent US6225260A, “Quaternary ammonium salts of a sulfonylurea” (Lonza Inc., priority 1999, dated 2001).
In brackets after ≈: the same amount, converted by molar mass.

Tests used:
[1] = Solubility in epoxidized soybean oil, methyl caprylate/caprate, and cottonseed oil
[2] = Aging / storage stability: relative decomposition of the sulfonylurea by HPLC; format: physicochemical; details: 10080 min
Procedure: Into 7.8 g of epoxidized soybean oil (ESBO) was added with stirring: 1.18 g methyl 3-[[[[(4-methoxy-6-methyl-1,3,5-triazin-2-yl)amino]carbonyl]amino]sulfonyl]-2-thiophenecarboxylate tech (98.1%), 1.31 g of anhydrous diisobutylphenoxy ethoxyethyl dimethylbenzyl ammonium chloride in H2 O (Hyamine 1622™), 0.11 g Ca(OH)2, and 0.03 g calcium acetate.
In a vial was vortexed the following: 0.214 g methyl 2-[[[[[(4,6-dimethoxy-2-pyrimidinyl)amino]carbonyl]amino]sulfonyl]methyl]benzoate (98.3%),0.192 g of a 25% aqueous solution of tetramethyl ammonium hydroxide, and 4.32 g of water to produce the sulfonylurea quaternary salt.

[3] = system: Aspergillus niger; details: 6 days, Czapek solution agar
Excerpt: A. niger ATCC #16404 was contacted with each sulfonylurea salt for 6 days in a Czapek solution agar.

[4] = system: Setaria faberi (Giant Foxtail); assay: Herbicidal efficacy against giant foxtail (green fresh weight, percent control); format: in vivo
Procedure: (§1) Aqueous solutions of the benzethonium salts of each sulfonylurea were prepared with and without 0.25% by weight of the nonionic surfactant polyoxyethylene (20) monolaurate (Tween 20®, trademark of ICI), based upon 100% total weight of aqueous solution. The aqueous solutions were sprayed onto giant foxtail (Setaria faberi) and large crabgrass (Digitaria sanguinalis) with a spray volume of 187 L/ha (liters/hectare). The active amount of each salt applied in grams/hectare (g/ha) is shown in Table 2 with respect to giant foxtail and Table 3 with respect to large crabgrass. The plants were evaluated two weeks after treatment with the aqueous solution by obtaining their green fresh weights and comparing these weights to an untreated control treatment to compute percent control values. Six replications were made of each treatment. All data were analyzed using a Fisher's Least Significant Difference (L.S.D.) Test at the 0.05 level.
(§2) Aqueous solutions were prepared with 75% concentrated, water-dispersible granules (75 DF) of nicosulfuron and rimsulfuron available as Accent® herbicide and Titus® herbicide (trademarks of DuPont) with or without 0.25% by weight of Tween 20®. These aqueous solutions were tested against giant foxtail (Setaria faberi) and large crabgrass (Digitaria sanguinalis) as described in Example 4.

[5] = system: Digitaria sanguinalis (Large Crabgrass); assay: Herbicidal efficacy against large crabgrass (green fresh weight, percent control); format: in vivo
Procedure: as §1, §2

[6] = Aging in deionized water: relative degradation of the sulfonylurea by HPLC; format: physicochemical; details: saturated in deionized water (500 ppm), 25° C. for 30 days
Procedure: Deionized water (5 g) was saturated with 2-[[[[(4,6-dimethoxy-2-pyrimidinyl)amino]carbonyl]amino]sulfonyl]-N,N-dimethyl-3-pyridinecarboxamide tech (500 ppm) and aged at 25° C. for 30 days.

[7] = Hydrolytic stability in aqueous solution by HPLC (storage at room temperature for 36 days); format: physicochemical; details: 100 ppm in deionized water, after 36 days, read-out: percentage of material present after storage
Procedure: Aqueous solutions containing 100 ppm of nicosulfuron or its benzethonium salt were prepared with deionized water and stored at room temperature for 36 days. The solutions were analyzed by HPLC with an Inersil ODS2 column and an ultraviolet detector at a wavelength of 254 nm. The mobile phase through the column consisted of acetonitrile and water at a 1:1 volume ratio. The flow rate through the column was 1 ml/min.

[8] = physchem; details: water, pH 7, water

CCCCCCCCCCCC[N+](CCCCCCCCCCCC)(CCCCCCCCCCCC)CCCCCCCCCCCC.COc1cc(OC)nc(NC(=O)[N-]S(=O)(=O)c2c(-c3nnn(C)n3)cnn2C)n1 [B]
solubility in organic solvents [1]: more than 50% | relative degradation ([2]; 50% solutions in epoxidized soybean oil, methyl caprylate/caprate, and cottonseed oil, 1 week at 54° C.): 20-45%

CC(C)(C)CC(C)(C)c1ccc(OCCOCC[N+](C)(C)Cc2ccccc2)cc1.COC(=O)c1ccccc1S(=O)(=O)[N-]C(=O)Nc1nc(C)nc(OC)n1 [Benzethonium salt of metsulfuron-methyl]
Minimum Effective Concentration [3]: 300-1000 ppm

CC(C)(C)CC(C)(C)c1ccc(OCCOCC[N+](C)(C)Cc2ccccc2)cc1.COc1cc(OC)nc(NC(=O)[N-]S(=O)(=O)c2ncccc2C(=O)N(C)C)n1 [Benzethonium salt of nicosulfuron]
Minimum Effective Concentration [3]: 100-300 ppm | % Control ([4]; 6 g/ha, 0.25% Tween 20, two weeks after treatment): 97% | % Control ([4]; 6 g/ha, no nonionic surfactant, two weeks after treatment): 39% | % Control ([5]; 20 g/ha, 0.25% Tween 20, two weeks after treatment): 94% | % Control ([5]; 20 g/ha, no nonionic surfactant, two weeks after treatment): 34%

CC(C)(C)CC(C)(C)c1ccc(OCCOCC[N+](C)(C)Cc2ccccc2)cc1.CCS(=O)(=O)c1cccnc1S(=O)(=O)[N-]C(=O)Nc1nc(OC)cc(OC)n1 [Benzethonium salt of rimsulfuron]
Minimum Effective Concentration [3]: 100-300 ppm | % Control ([4]; 3 g/ha, 0.25% Tween 20, two weeks after treatment): 95% | % Control ([4]; 3 g/ha, no nonionic surfactant, two weeks after treatment): 25% | % Control ([5]; 10 g/ha, 0.25% Tween 20, two weeks after treatment): 94% | % Control ([5]; 10 g/ha, no nonionic surfactant, two weeks after treatment): 58%

COC(=O)c1ccccc1CS(=O)(=O)[N-]C(=O)Nc1nc(OC)cc(OC)n1.C[N+](C)(C)C [C]
degradation of the sulfonylurea ([2]; aqueous solution, one week at 54° C.): 52%

COc1cc(OC)nc(NC(=O)NS(=O)(=O)c2ncccc2C(=O)N(C)C)n1 [nicosulfuron, 2-[[[[(4,6-dimethoxy-2-pyrimidinyl)amino]carbonyl]amino]suflonyl]-N,N-dimethyl-3-pyridinecarboxamide]
degraded at 720 h [6]: 90% | remaining at 864 h [7]: 7% | solubility [8]: 12 mg/mL (≈ 29.2 mM)
